# Reference: patent US9539257B2, “Method of treating cancer” (NOVARTIS AG, priority 2009, dated 2017)
# Where “and” joins values, the source holds several entries; their conditions need not be identical. Equal entries are not always repeated. Where two headings read alike, the source gives them in different places.
# Columns and labels:
# [1] = On-treatment liver chemistry (ALT, TBL, ALP), confirmatory study PGx population, lapatinib plus letrozole phase III trial; format: in vivo, human
# HLA-DQA1*0201 = settings: for HLA-DQA1*0201 Carrier: Non Cases (number) / HLA-DQA1*0201 Non-Carrier: Non Cases (number) / HLA-DQA1*0201 Carrier: Cases (number) / HLA-DQA1*0201 Non-Carrier: Cases (number) / NPV (CI) / OR (CI) / PPV (CI): confirmatory cohort; for NPV (CI) / OR (CI) / PPV (CI): HLA-DQA1*0201 carriage, cases vs non-cases
# Description: (§1) The two phenotypes that were evaluated were maximum on-treatment liver chemistry values for ALT and TBL with respect to the upper limit of normal. These phenotypes were evaluated in both case-control and quantitative trait analyses while key associations were examined qualitatively in the combined ALT/TBL cases. ALT and TBL cases were defined as maximum on-treatment elevations of ≧3×ULN and ≧1.5×ULN, respectively, and control subjects were defined as maximum on-treatment ALT or TBL of ≦1×ULN. […] Approximately 370 patients with an adequate, fully consented DNA sample had available clinical data for these phenotypes.
# (§2) Germline DNA was extracted from peripheral blood (QiAmp DNA Blood Kit, Qiagen, Valencia, Calif.). This study evaluated candidate gene and genome-wide screening, performed in parallel, to detect case-control association signals in the exploratory cohort. Class I and II HLA genes (seven genes to 4-digit and three genes to 2-digit resolution) were typed by Laboratory Corporation of America (Burlington, N.C.) and Histogenetics (Ossining, N.Y.), or at GSK using the LABType® SSO Typing Test (One Lambda, Canoga Park, Calif.). […] Whole genome screen genotyping on the Illumina Human 1M-Duo platform was also conducted (Expression Analysis, Durham, N.C.).
# (§3) For the exploratory study, initial analysis of the GWAS was done using logistic regression, carried out in PLINK (Purcell S, et al. American Journal of Human Genetics 2007; 81, 559-575) using the genotypic test option when three genotype classes were observed, or the additive test option when only two genotype classes were observed. […] In addition to the genotype term, all models included baseline ALT xULN, treatment group (for the exploratory study), and a sufficient number of principal components to account for potential confounding by population structure. Principal components were obtained from EIGENSOFT (Patterson N. et al. PLoS Genetics 2006; 2: e190), using study subjects and HapMap founders.
# (§4) Genetic markers selected for confirmatory were required to achieve pre-defined p-value thresholds in the exploratory analysis of p≦0.05 for HLA markers, p≦0.01 for candidate gene markers and p≦10-4 for whole genome screen SNPs. For markers confirmed at p≦0.01, measures of potential clinical utility were evaluated. An allele or genotype(s) was designated which conferred a higher risk of ALT elevation and this was compared to the non-risk allele(s)/genotype(s) and the odds ratio (OR), positive predictive value (PPV), and negative predictive value (NPV) calculated.
# HLA-DQB1*0202 = system: HLA-DQB1*0202
# Description: as §1, §2, §3, §4
# HLA-DRB1*0701 = system: HLA-DRB1*0701
# Description: as §1, §2, §3, §4
# TNXB rs12153855 = assay: ALT case-control genetic association, confirmatory study (lapatinib plus letrozole arm); format: in vivo, human; settings: TNXB rs12153855 CC/CT
# Description: as §2, §3, §4
# UGT1A1*28 = settings: confirmation analysis, lapatinib plus letrozole arm
# Description: Statistical analyses used for this investigation indicated the following. The two phenotypes that were evaluated were maximum on-treatment liver chemistry values for ALT and TBL with respect to the upper limit of normal. These phenotypes were evaluated in both case-control and quantitative trait analyses while key associations were examined qualitatively in the combined ALT/TBL cases. ALT and TBL cases were defined as maximum on-treatment elevations of ≧3×ULN and ≧1.5×ULN, respectively, and control subjects were defined as maximum on-treatment ALT or TBL of ≦1×ULN. […] Approximately 370 patients with an adequate, fully consented DNA sample had available clinical data for these phenotypes.
# HLA-B*4403 = settings: matched case-control
# Description: The two phenotypes that were evaluated were maximum on-treatment liver chemistry values for ALT and TBL with respect to the upper limit of normal. These phenotypes were evaluated separately in case-control and quantitative trait analyses and jointly in a combined case-control analysis. ALT and TBL cases were defined as maximum on-treatment elevations of ≧3×ULN and ≧1.5×ULN, respectively, and control subjects were defined as maximum on-treatment ALT or TBL of ≦1×ULN. Approximately 950 patients with an adequate, fully consented DNA sample had available clinical data for these phenotypes. After subject genotyping quality control was completed, a total of 947 patients remained for pharmacogenetic analyses on at least one genetic variant.
# Evaluation of HLA genes focused on a subset of the total number of patients consisting of all ALT cases (N=47) and matched controls (N=47).
# [2] = Confirmatory Study ALT Cases (N=24)
# [3] = Confirmatory Study ALT Cases with HLA Data Available, at time of maximum ALT
# [4] = Confirmatory Study ALT Controls (N=155)
# [5] = Confirmatory Study PGx Population (1 trial, N=374), lapatinib combination with letrozole
# [6] = Confirmatory Study PGx Population (N=374), lapatinib + letrozole
# [7] = lapatinib plus letrozole arm of the confirmatory study
# [8] = restricted baseline (ALT and TBL <=1xULN at baseline)
# [9] = unrestricted baseline (ALT and/or TBL >1xULN at baseline)
# [10] = DQB1*0202 carriage, ALT cases, Confirmatory study
# [11] = DQB1*0202 carriage, ALT controls, Confirmatory study
# [12] = DRB1*0701 carriage, ALT cases, Confirmatory study
# [13] = DRB1*0701 carriage, ALT controls, Confirmatory study
compound,measurement,setting,value
"CS(=O)(=O)CCNCc1ccc(-c2ccc3ncnc(Nc4ccc(OCc5cccc(F)c5)c(Cl)c4)c3c2)o1 [lapatinib, N-(3 chloro-4-{[(3-fluorophenyl)methyl]oxy}phenyl)-6-[5-({[2 (methylsulfonyl)ethyl]amino}methyl)-2-furanyl]-4-quinazolinamine bis(4 methylbenzenesulfonate)monohydrate]",Maximum on treatment ALT xULN: Mean(SD),[1]; [2],6.50(3.73) xULN
same,Maximum on treatment ALT xULN: Median,[1]; [2],4.96 xULN
same,N of ALT cases with Cholestatic injury type,[1]; [3],3
same,N of ALT cases with Hepatocellular injury type,[1]; [3],12
same,N of ALT cases with Mixed injury type,[1]; [3],9
same,Maximum on treatment ALT xULN: Mean(SD),[1]; [4],0.66(0.19) xULN
same,Maximum on treatment ALT xULN: Median,[1]; [4],0.65 xULN
same,Maximum on treatment ALT xULN: Mean(SD),[1]; [5],1.53 (1.97) xULN
same,Maximum on treatment ALT xULN: Median,[1]; [5],0.91 xULN
same,Maximum on treatment ALT > 3 xULN (%),[1]; [6],9.4%
same,Maximum on treatment ALT > 5 xULN (%),[1]; [6],5.1%
same,Maximum on treatment ALT > 8 xULN (%),[1]; [6],2.4%
same,Maximum on treatment TBL xULN: Mean(SD),[1]; [6],0.93 (1.48) xULN
same,Maximum on treatment TBL xULN: Median,[1]; [6],0.76 xULN
same,"hepatobiliary adverse event cases (ALT>3x and TBL >1.5xULN, irrespective of baseline ALT), number",[1]; [7],Fifteen
same,"patients adjudicated by liver experts as probable Hy's Rule cases, number",[1]; [7],two
same,HLA-DQA1*0201 Carrier: Non Cases (number),HLA-DQA1*0201; ALT Cases > 3 xULN threshold,82
same,HLA-DQA1*0201 Non-Carrier: Non Cases (number),HLA-DQA1*0201; ALT Cases > 3 xULN threshold,268
same,HLA-DQA1*0201 Carrier: Cases (number),HLA-DQA1*0201; ALT Cases > 3 xULN,17
same,HLA-DQA1*0201 Non-Carrier: Cases (number),HLA-DQA1*0201; ALT Cases > 3 xULN,7
same,HLA-DQA1*0201 Carrier: Non Cases (number),HLA-DQA1*0201; ALT Cases > 5 xULN threshold,90
same,HLA-DQA1*0201 Non-Carrier: Non Cases (number),HLA-DQA1*0201; ALT Cases > 5 xULN threshold,272
same,HLA-DQA1*0201 Carrier: Cases (number),HLA-DQA1*0201; ALT Cases > 5 xULN,9
same,HLA-DQA1*0201 Non-Carrier: Cases (number),HLA-DQA1*0201; ALT Cases > 5 xULN,3
same,HLA-DQA1*0201 Carrier: Non Cases (number),HLA-DQA1*0201; ALT Cases > 8 xULN threshold,93
same,HLA-DQA1*0201 Non-Carrier: Non Cases (number),HLA-DQA1*0201; ALT Cases > 8 xULN threshold,274
same,HLA-DQA1*0201 Carrier: Cases (number),HLA-DQA1*0201; ALT Cases > 8 xULN,6
same,HLA-DQA1*0201 Non-Carrier: Cases (number),HLA-DQA1*0201; ALT Cases > 8 xULN,1
same,"% that carry DQA1*0201, Hepatocellular",HLA-DQA1*0201; Confirmatory Study ALT Cases,83%
same,"% that carry DQA1*0201, Mixed",HLA-DQA1*0201; Confirmatory Study ALT Cases,78%
same,"N that carry DQA1*0201, Cholestatic",HLA-DQA1*0201; Confirmatory Study ALT Cases,0
same,"N that carry DQA1*0201, Hepatocellular",HLA-DQA1*0201; Confirmatory Study ALT Cases,10
same,"N that carry DQA1*0201, Mixed",HLA-DQA1*0201; Confirmatory Study ALT Cases,7
same,Carriage: cases (n/N),"HLA-DQA1*0201; DQA1*0201 carriage, ALT cases (>3xULN), Confirmatory study, lapatinib plus letrozole",17/24
same,Carriage: controls (n/N),"HLA-DQA1*0201; DQA1*0201 carriage, ALT controls, Confirmatory study, lapatinib plus letrozole",33/155
same,PPV,"HLA-DQA1*0201; Example 1A analysis: HLA-DQA1*0201, ALT cases vs all non-case subjects, 95% CI 0.11-0.27",0.18
same,NPV,"HLA-DQA1*0201; Example 1A analysis: HLA-DQA1*0201, ALT cases vs all non-case subjects, 95% CI 0.95-0.99",0.97
same,NPV (CI),HLA-DQA1*0201; ALT > 3 xULN,"0.97 (0.95, 0.99) and 0.975 (0.948, 0.990)"
same,OR (CI),HLA-DQA1*0201; ALT > 3 xULN,"7.9 (3.0, 23.3)"
same,PPV (CI),HLA-DQA1*0201; ALT > 3 xULN,"0.17 (0.10, 0.26)"
same,NPV (CI),HLA-DQA1*0201; ALT > 5 xULN,"0.99 (0.97, 0.9977)"
same,OR (CI),HLA-DQA1*0201; ALT > 5 xULN,"9.1 (2.2, 52.8)"
same,PPV (CI),HLA-DQA1*0201; ALT > 5 xULN,"0.09 (0.04, 0.17)"
same,NPV (CI),HLA-DQA1*0201; ALT > 8 xULN,"0.9964 (0.98, 0.9999)"
same,OR (CI),HLA-DQA1*0201; ALT > 8 xULN,"17.7 (2.1, 816)"
same,PPV (CI),HLA-DQA1*0201; ALT > 8 xULN,"0.06 (0.02, 0.13)"
same,DQA1*0201 alone carriage in non-cases,HLA-DQA1*0201; confirmatory study (82/350),23%
same,"cumulative incidence of ALT elevation, DQA1*0201 carriers compared with non-carriers","HLA-DQA1*0201; lapatinib plus letrozole treated patients, FIG. 3",higher
same,reduction of the rate of ALT elevation on removal of DQA1*0201 carriers,"HLA-DQA1*0201; lapatinib plus letrozole treated patients, confirmatory study",more than two-thirds
same,"hepatobiliary adverse event cases carrying the DQA1*0201 allele, number",HLA-DQA1*0201; of eleven cases that provided DNA,six
same,combined ALT/TBL cases that were HLA-DQA1*0201 carriers,HLA-DQA1*0201; [8],6/6
same,combined ALT/TBL cases that were HLA-DQA1*0201 carriers,HLA-DQA1*0201; [9],1/6
same,Carriage: cases (%),HLA-DQB1*0202; [10],(63%)
same,Carriage: cases (n/N),HLA-DQB1*0202; [10],15/24
same,Carriage: controls (%),HLA-DQB1*0202; [11],(19%)
same,Carriage: controls (n/N),HLA-DQB1*0202; [11],30/155
same,combined ALT/TBL cases that carried HLA-DQB1*0202,HLA-DQB1*0202; [8],5/6
same,combined ALT/TBL cases that were HLA-DQB1*0202 carriers,HLA-DQB1*0202; [9],1/6
same,Carriage: cases (%),HLA-DRB1*0701; [12],(67%)
same,Carriage: cases (n/N),HLA-DRB1*0701; [12],16/24
same,Carriage: controls (%),HLA-DRB1*0701; [13],(23%)
same,Carriage: controls (n/N),HLA-DRB1*0701; [13],35/155
same,combined ALT/TBL cases that were HLA-DRB1*0701 carriers,HLA-DRB1*0701; [8],6/6
same,combined ALT/TBL cases that were HLA-DRB1*0701 carriers,HLA-DRB1*0701; [9],1/6
same,Carriage: cases (%),TNXB rs12153855; ALT cases,(63%)
same,Carriage: cases (n/N),TNXB rs12153855; ALT cases,15/24
same,Carriage: controls (%),TNXB rs12153855; ALT controls,(19%)
same,Carriage: controls (n/N),TNXB rs12153855; ALT controls,29/155
same,TBL cases carrying TA7/TA7 genotype,UGT1A1*28; TBL cases >=1.5xULN (n=21),33%
same,TBL controls carrying TA7/TA7 genotype,UGT1A1*28; controls (n=226),4%
same,ALT cases carrying one copy of HLA-B*4403,HLA-B*4403; 47 cases,Twenty three
same,ALT controls carrying one copy of HLA-B*4403,HLA-B*4403; 47 controls,6%
